Structures can show the parent of a compound that is named as a salt.
Columns and labels:
KRas G12D = KRas G12D (Homo sapiens (Human), UniProt P01116, G12D); experiment: KRas G12D Binding Assay (TR-FRET displacement); settings: TR-FRET displacement of Cy5 labelled tracer, GDP-loaded KRAS G12D, 60 minute incubation at 22° C.
Protocol: After a 60 minute incubation at 22° C., the reaction was measured using a PerkinElmer EnVision multimode plate reader via TR-FRET dual wavelength detection, and the percent of control (POC) calculated using a ratiometric emission factor. […] The POC values were fit to a 4-parameter logistic curve and the IC50 value was determined as the concentration where the curve crosses 50 POC.

[1] = test system: KRas G12D-mediated phosphorylation of ERK; experiment: Inhibition of KRas G12D-mediated phosphorylation of ERK in AGS cells; format: cell-based; settings: Homo sapiens; AGS cells expressing G12D, 3 hours, phospho-ERK normalized to GAPDH
Outline: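 Fixed, methanol-permeabilized; phospho-ERK (Thr202/Tyr204) by in-cell immunofluorescence normalized to GAPDH. Percent of DMSO control, IC50 by 4-parameter fit.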

Sequence of KRas G12D (P01116 other isoform, or with tags, fused parts or gaps G12D): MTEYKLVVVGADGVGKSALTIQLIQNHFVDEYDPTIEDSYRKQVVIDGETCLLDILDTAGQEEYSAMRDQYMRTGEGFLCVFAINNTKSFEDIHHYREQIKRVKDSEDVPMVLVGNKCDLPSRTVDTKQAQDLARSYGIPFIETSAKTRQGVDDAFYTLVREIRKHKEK

| Structure (SMILES) | IC50 (KRas G12D) | IC50 [1] |
| --- | --- | --- |
| Fc1c(-c2ccccc2C2CC2)ncc2c(N3CC4CCC(C3)N4)nc(OC[C@@]34CCCN3C[C@H](F)C4)nc12 (racemic) [Example 368, 4-((1R,5S)-3,8-diazabicyclo[3.2.1]octan-3-yl)-7-(2-cyclopropylphenyl)-8-fluoro-2-((2-fluorotetrahydro-1H-pyrrolizin-7a(5H)-yl)methoxy)pyrido[4,3-d]pyrimidine (racemic, trans)] | 0.208 µM |  |
| COc1ccc(OC(F)(F)F)c(-c2ncc3c(N4CC5CCC(C4)N5)nc(OC[C@@]45CCCN4C[C@H](F)C5)nc3c2F)c1 (racemic) [Example 361, 4-((1R,5S)-3,8-diazabicyclo[3.2.1]octan-3-yl)-8-fluoro-2-((2-fluorotetrahydro-1H-pyrrolizin-7a(5H)-yl)methoxy)-7-(5-methoxy-2-(trifluoromethoxy)phenyl)pyrido[4,3-d]pyrimidine (racemic, trans)] | 2.7 µM |  |
| Cc1cc2[nH]ncc2c(-c2ncc3c(N4CC5CCC(C4)N5)nc(OC[C@@]45CCCN4C[C@H](F)C5)nc3c2F)c1Cl (racemic) [Example 376, 4-((1R,5S)-3,8-diazabicyclo[3.2.1]octan-3-yl)-7-(5-chloro-6-methyl-1H-indazol-4-yl)-8-fluoro-2-((2-fluorotetrahydro-1H-pyrrolizin-7a(5H)-yl)methoxy)pyrido[4,3-d]pyrimidine (racemic, trans)] | 0.0026 µM |  |
| COC1(OC)CN2CCCC2(COc2nc(N3C[C@H]4CC[C@@H](C3)N4)c3cnc(-c4cccc5cccc(Cl)c45)c(F)c3n2)C1 (stereo partly drawn) [Example 404, 4-((1R,5S)-3,8-diazabicyclo[3.2.1]octan-3-yl)-7-(8-chloronaphthalen-1-yl)-2-((2,2-dimethoxytetrahydro-1H-pyrrolizin-7a(5H)-yl)methoxy)-8-fluoropyrido[4,3-d]pyrimidine] |  | 8.33 µM |
| O=C(CCl)N1CCC(Oc2nc(N3C[C@H]4CC[C@@H](C3)N4)c3cnc(-c4cccc5cccc(Cl)c45)c(F)c3n2)CC1 [Example 163, 1-(4-((4-((1R,5S)-3,8-diazabicyclo[3.2.1]octan-3-yl)-7-(8-chloronaphthalen-1-yl)-8-fluoropyrido[4,3-d]pyrimidin-2-yl)oxy)piperidin-1-yl)-2-chloroethan-1-one bis(2,2,2-trifluoroacetate)] |  | > 16.7 µM |
| CN1C[C@H](OC(=O)NCCOCc2ccc(O)cc2)C[C@H]1COc1nc(N2C[C@H]3CC[C@@H](C2)N3)c2cnc(-c3cccc4cccc(Cl)c34)c(F)c2n1 [Example 260, (3R,5S)-5-(((4-((1R,5S)-3,8-diazabicyclo[3.2.1]octan-3-yl)-7-(8-chloronaphthalen-1-yl)-8-fluoropyrido[4,3-d]pyrimidin-2-yl)oxy)methyl)-1-methylpyrrolidin-3-yl (2-((4-hydroxybenzyl)oxy)ethyl)carbamate] |  | > 16.7 µM |
| Oc1cc(-c2ncc3c(N4C[C@H]5CC[C@@H](C4)N5)nc(OCCc4ccccn4)nc3c2F)c2ccccc2c1 [Example 4, 4-(4-((1R,5S)-3,8-diazabicyclo[3.2.1]octan-3-yl)-8-fluoro-2-(2-(pyridin-2-yl)ethoxy)pyrido[4,3-d]pyrimidin-7-yl)naphthalen-2-ol] |  | 8.53 µM |
| C#Cc1cccc2cncc(-c3ncc4c(N5C[C@H]6CC[C@@H](C5)N6)nc(OC[C@]56CCCN5C[C@@H](F)C6)nc4c3F)c12 [Example 204, 4-((1R,5S)-3,8-diazabicyclo[3.2.1]octan-3-yl)-7-(5-ethynylisoquinolin-4-yl)-8-fluoro-2-(((2S,7aR)-2-fluorotetrahydro-1H-pyrrolizin-7a(5H)-yl)methoxy)pyrido[4,3-d]pyrimidine] |  | 0.307 µM |
| CN(C)CCOc1nc(N2C[C@H]3CC[C@@H](C2)N3)c2cnc(-c3cc(O)cc4ccccc34)c(F)c2n1 [Example 18, 4-(4-((1R,5S)-3,8-diazabicyclo[3.2.1]octan-3-yl)-2-(2-(dimethylamino)ethoxy)-8-fluoropyrido[4,3-d]pyrimidin-7-yl)naphthalen-2-ol] |  | 3.74 µM |
| CC(C)c1c(F)cc(O)cc1-c1ncc2c(N3C[C@H]4CC[C@@H](C3)N4)nc(OC[C@@]34CCCN3C[C@H](F)C4)nc2c1F [Example 290, 3-(4-((1R,5S)-3,8-diazabicyclo[3.2.1]octan-3-yl)-8-fluoro-2-(((2R,7aS)-2-fluorotetrahydro-1H-pyrrolizin-7a(5H)-yl)methoxy)pyrido[4,3-d]pyrimidin-7-yl)-5-fluoro-4-isopropylphenol] |  | 0.111 µM |
| C#Cc1cccc2cccc(-c3ncc4c(N5C[C@H]6CC[C@@H](C5)N6)nc(OC[C@]56CCCN5C[C@@H](F)C6)nc4c3F)c12 [Example 205, 4-((1R,5S)-3,8-diazabicyclo[3.2.1]octan-3-yl)-7-(8-ethynylnaphthalen-1-yl)-8-fluoro-2-(((2S,7aR)-2-fluorotetrahydro-1H-pyrrolizin-7a(5H)-yl)methoxy)pyrido[4,3-d]pyrimidine] |  | 0.242 µM |
| O[C@@H]1C[C@@H]2CN(c3nc(OCCn4ccnc4CF)nc4c(F)c(-c5cccc6cccc(Cl)c56)ncc34)C[C@H]1N2 [Example 168, (1R,5R,6R)-3-(7-(8-chloronaphthalen-1-yl)-8-fluoro-2-(2-(2-(fluoromethyl)-1H-imidazol-1-yl)ethoxy)pyrido[4,3-d]pyrimidin-4-yl)-3,8-diazabicyclo[3.2.1]octan-6-ol] |  | > 16.7 µM |
| CN1CCC[C@H]1COc1nc(N2C[C@H]3CC[C@@H](C2)N3)c2cnc(-c3cccc4c3C3(CC4)CC3)c(F)c2n1 [Example 162, 4-((1R,5S)-3,8-diazabicyclo[3.2.1]octan-3-yl)-7-(2′,3′-dihydrospiro[cyclopropane-1,1′-inden]-7′-yl)-8-fluoro-2-(((S)-1-methylpyrrolidin-2-yl)methoxy)pyrido[4,3-d]pyrimidine bis(2,2,2-trifluoroacetate)] |  | > 16.7 µM |
| Nc1ccc(CCOc2nc(N3C[C@H]4CC[C@@H](C3)N4)c3cnc(-c4cccc5cccc(Cl)c45)c(F)c3n2)cn1 [Example 141, 5-(2-((4-((1R,5S)-3,8-diazabicyclo[3.2.1]octan-3-yl)-7-(8-chloronaphthalen-1-yl)-8-fluoropyrido[4,3-d]pyrimidin-2-yl)oxy)ethyl)pyridin-2-amine] |  | > 16.7 µM |
| CN1CCC[C@H]1COc1nc(N2C[C@H]3CC[C@@H](C2)N3)c2cnc(-c3cc(O)c(Br)c4ccccc34)c(F)c2n1 [Example 14, 4-(4-((1R,5S)-3,8-diazabicyclo[3.2.1]octan-3-yl)-8-fluoro-2-(((S)-1-methylpyrrolidin-2-yl)methoxy)pyrido[4,3-d]pyrimidin-7-yl)-1-bromonaphthalen-2-ol] |  | 4.84 µM |
| Oc1cc(-c2ncc3c(N4C[C@H]5CC[C@@H](C4)N5)nc(OC[C@@H]4CCCN4)nc3c2F)c2ccccc2c1 [Example 50, 4-(4-((1R,5S)-3,8-diazabicyclo[3.2.1]octan-3-yl)-8-fluoro-2-(((S)-pyrrolidin-2-yl)methoxy)pyrido[4,3-d]pyrimidin-7-yl)naphthalen-2-ol] |  | 15.4 µM |
| CN1C[C@H](F)C[C@H]1COc1nc(N2C[C@H]3CC[C@@H](C2)N3)c2cnc(-c3cccc4cccc(Cl)c34)c(F)c2n1 [Example 115, 4-((1R,5S)-3,8-diazabicyclo[3.2.1]octan-3-yl)-7-(8-chloronaphthalen-1-yl)-8-fluoro-2-(((2S,4R)-4-fluoro-1-methylpyrrolidin-2-yl)methoxy)pyrido[4,3-d]pyrimidine] |  | 9.51 µM |
| Fc1c(-c2cccc3cccc(C4CC4)c23)ncc2c(N3C[C@H]4CC[C@@H](C3)N4)nc(OCC34CCCN3CCC4)nc12 [Example 335, 4-((1R,5S)-3,8-diazabicyclo[3.2.1]octan-3-yl)-7-(8-cyclopropylnaphthalen-1-yl)-8-fluoro-2-((tetrahydro-1H-pyrrolizin-7a(5H)-yl)methoxy)pyrido[4,3-d]pyrimidine] |  | 10.4 µM |
| CC(=O)N1CCC(Oc2nc(N3C[C@H]4CC[C@@H](C3)N4)c3cnc(-c4cc(O)cc5ccccc45)c(F)c3n2)CC1 [Example 78, 1-(4-((4-((1R,5S)-3,8-diazabicyclo[3.2.1]octan-3-yl)-8-fluoro-7-(3-hydroxynaphthalen-1-yl)pyrido[4,3-d]pyrimidin-2-yl)oxy)piperidin-1-yl)ethan-1-one] |  | > 16.7 µM |
| O[C@H]1CN2CCC[C@]2(COc2nc(N3CC4CCC(C3)N4)c3cnc(-c4cccc5cccc(Cl)c45)c(F)c3n2)C1 (stereo in doubt) [Example 224, 7a-(((4-((1R,5S)-3,8-diazabicyclo[3.2.1]octan-3-yl)-7-(8-chloronaphthalen-1-yl)-8-fluoropyrido[4,3-d]pyrimidin-2-yl)oxy)methyl)hexahydro-1H-pyrrolizin-2-ol bis-hydrochloride] |  | 6.38 µM |
| Oc1cc(Cl)c(C(F)(F)F)c(-c2ncc3c(N4C[C@H]5CC[C@@H](C4)N5)nc(OC[C@@]45CCCN4C[C@H](F)C5)nc3c2F)c1 [Example 284, 3-(4-((1R,5S)-3,8-diazabicyclo[3.2.1]octan-3-yl)-8-fluoro-2-(((2R,7aS)-2-fluorohexahydro-1H-pyrrolizin-7a-yl)methoxy)pyrido[4,3-d]pyrimidin-7-yl)-5-chloro-4-(trifluoromethyl)phenol] |  | 0.0174 µM |
| Fc1cccc(-c2ncc3c(N4C[C@H]5CC[C@@H](C4)N5)nc(OCC45CCCN4CCC5)nc3c2F)c1C1CC1 [Example 304, 4-((1R,5S)-3,8-diazabicyclo[3.2.1]octan-3-yl)-7-(2-cyclopropyl-3-fluorophenyl)-8-fluoro-2-((hexahydro-1H-pyrrolizin-7a-yl)methoxy)pyrido[4,3-d]pyrimidine] |  | 1.42 µM |
| Fc1c(-c2cccc3cccc(Cl)c23)ncc2c(N3C[C@H]4CC[C@@H](C3)N4)nc(OCC34CC(F)CN3CC(F)C4)nc12 (stereo partly drawn) [Example 425, 4-((1R,5S)-3,8-diazabicyclo[3.2.1]octan-3-yl)-7-(8-chloronaphthalen-1-yl)-2-((2,6-difluorohexahydro-1H-pyrrolizin-7a-yl)methoxy)-8-fluoropyrido[4,3-d]pyrimidine] |  | 5.41 µM |
